Test results reported in patent publication US10034862B2, “Solid pharmaceutical composition comprising amlodipine and losartan” (HANMI PHARM. CO., LTD., priority 2014, dated 2018).

Key:
[1] = cited from earlier work
[2] = Dissolution of losartan at different pH (gelation); format: physicochemical
Protocol: However, when the combined formulation of amlodipine and losartan was prepared, undesirable gelation of losartan was observed. […] As such, in the combined formulation of amlodipine and losartan, amlodipine may also be trapped in the losartan gel due to the gelation of losartan, resulting in a decrease in dissolution rate.

dissolution of losartan (in words) ([2]; low pH (e.g., pH 1.2 or 2.0), gelation): very slowly dissolved
dissolution of losartan (in words) ([2]; purified water or relatively high pH (e.g., pH 6.8)): easily dissolved
SMILES: CCCCc1nc(Cl)c(CO)n1Cc1ccc(-c2ccccc2-c2nnn[nH]2)cc1 [losartan, 2-butyl-4-chloro-1-[[2′-(1H-tetrazol-5-yl)[1,1′-biphenyl]-4-yl]methyl]-1H-imidazol-5-methanol]
reduction of Cmax of losartan after food ingestion [1]: about 10%
